Measured values from ChEMBL document CHEMBL1201862, “PubChem BioAssay data set” (2004).
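1) Cells in 96-well plates. 2) Compound, 48 h, 5 concentrations. 3) Linear interpolation between surrounding doses. 4) Unreached endpoint = highest concentration. Here, GI50 denotes the concentration required for 50% inhibition of growth.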 The source made the active and inactive calls. Cut-off read from the data, not from the text of the source: active = GI50 up to about 1.1 µM and inactive = higher.

How the values were obtained:
Experiment in all cases: growth of human tumour cells (NCI), 48 h
[1] = system: M14
[2] = system: SF-295
[3] = system: SK-OV-3
[4] = system: Hs-578T
[5] = system: CCRF-CEM
[6] = system: SR
[7] = system: HCC 2998
[8] = system: HL-60
[9] = system: EKVX
[10] = system: HCT-15
[11] = system: HT-29
[12] = system: OVCAR-8
[13] = system: MOLT-4
[14] = system: A549
[15] = system: A498
[16] = system: NCI/ADR-RES
[17] = system: NCI-H460
[18] = system: SK-MEL-28
[19] = system: SK-MEL-2
[20] = system: NCI-H226

| Compound | GI50 [1] | GI50 [2] | GI50 [3] | GI50 [4] | GI50 [5] | GI50 [6] | GI50 [7] | GI50 [8] | GI50 [9] | GI50 [10] | GI50 [11] | GI50 [12] | GI50 [13] | GI50 [14] | GI50 [15] | GI50 [16] | GI50 [17] | GI50 [18] | GI50 [19] | GI50 [20] |
| --- | --- | --- | --- | --- | --- | --- | --- | --- | --- | --- | --- | --- | --- | --- | --- | --- | --- | --- | --- | --- |
| CSc1ncc2c(C#N)c3sc4ccccc4n3c(=O)c2n1 | > 100 µM (inactive) | > 100 µM (inactive) | 80.7 µM (inactive) | 24.6 µM (inactive) | > 100 µM (inactive) | 19.6 µM (inactive) | > 100 µM (inactive) | > 100 µM (inactive) | > 100 µM (inactive) | 80.4 µM | > 100 µM (inactive) | 26.1 µM (inactive) | > 100 µM (inactive) | 78.3 µM (inactive) | > 100 µM (inactive) | 38.8 µM (inactive) | 22.4 µM (inactive) | > 100 µM (inactive) | > 100 µM (inactive) | 26.1 µM (inactive) |
| COc1ccc(-c2cc(=O)c3c(OC)c(OC)c(OC)c(OC)c3o2)c(OC)c1 | 21 µM (inactive) | 18.4 µM (inactive) | 39.8 µM (inactive) | 18 µM (inactive) | 33.8 µM (inactive) | > 100 µM (inactive) | 18.8 µM (inactive) | 29.7 µM (inactive) | 29.2 µM (inactive) | 25.6 µM | 24.2 µM (inactive) | 21.9 µM (inactive) | 26.4 µM (inactive) | 32.6 µM (inactive) | 21.6 µM (inactive) | 16.8 µM (inactive) | 32.1 µM (inactive) | 42.9 µM (inactive) | 19.1 µM (inactive) | 31 µM (inactive) |
| O=C(NCCCCCCCN1CCCCCCC1)C(C1CCCCC1)C1CCCCC1 | 2.01 µM (inactive) | 11.4 µM (inactive) | 11.3 µM (inactive) | 21.7 µM (inactive) | 6.97 µM (inactive) | 2.34 µM (inactive) | 2.76 µM (inactive) | 5.14 µM (inactive) | 4.4 µM (inactive) | 4.07 µM | 2.82 µM (inactive) | 12.3 µM (inactive) | 1.19 µM (inactive) | 11.7 µM (inactive) | 5.83 µM (inactive) | 9.98 µM (inactive) | 9.1 µM (inactive) | 6.08 µM (inactive) | 9.08 µM (inactive) | 9.42 µM (inactive) |
| CCOC(=O)NC(Nc1ccc(F)c(F)c1)(C(=O)OCC)C(F)(F)F (stereo not given) | 0.826 µM (active) | 74 µM (inactive) | > 100 µM (inactive) | > 25.9 µM (inactive) | > 100 µM (inactive) | > 100 µM (inactive) | > 100 µM (inactive) | 20.4 µM (inactive) | > 100 µM (inactive) | > 100 µM | > 100 µM (inactive) | 46 µM (inactive) | > 100 µM (inactive) | > 100 µM (inactive) | > 100 µM (inactive) | > 68.5 µM (inactive) | > 100 µM (inactive) | > 100 µM (inactive) | 17.5 µM (inactive) | > 100 µM (inactive) |
| CC(C)(C)C1=CC(=C(c2ccc(-c3c4nc(c(-c5ccc(C(=C6C=C(C(C)(C)C)C(=O)C(C(C)(C)C)=C6)c6cc(C(C)(C)C)c(O)c(C(C)(C)C)c6)cc5)c5ccc([nH]5)c(-c5ccc(C(=C6C=C(C(C)(C)C)C(=O)C(C(C)(C)C)=C6)c6cc(C(C)(C)C)c(O)c(C(C)(C)C)c6)cc5)c5nc(c(-c6ccc(C(=C7C=C(C(C)(C)C)C(=O)C(C(C)(C)C)=C7)c7cc(C(C)(C)C)c(O)c(C(C)(C)C)c7)cc6)c6ccc3[nH]6)C=C5)C=C4)cc2)c2cc(C(C)(C)C)c(O)c(C(C)(C)C)c2)C=C(C(C)(C)C)C1=O | > 100 µM (inactive) | > 100 µM (inactive) | > 100 µM (inactive) | > 100 µM (inactive) | > 100 µM (inactive) | > 100 µM (inactive) | > 100 µM (inactive) | > 100 µM (inactive) | > 100 µM (inactive) | > 100 µM | > 100 µM (inactive) | > 100 µM (inactive) | > 100 µM (inactive) | > 100 µM (inactive) | > 100 µM (inactive) | > 100 µM (inactive) | > 100 µM (inactive) | > 100 µM (inactive) | > 100 µM (inactive) | > 100 µM (inactive) |
| O=C(O)CCC1C(=O)C2CCN1CC2 (stereo not given) | > 100 µM (inactive) | > 100 µM (inactive) | > 100 µM (inactive) | > 100 µM (inactive) | > 100 µM (inactive) | > 100 µM (inactive) | > 100 µM (inactive) | > 100 µM (inactive) | > 100 µM (inactive) | > 100 µM | > 100 µM (inactive) | > 100 µM (inactive) | > 100 µM (inactive) | > 100 µM (inactive) | 97.7 µM (inactive) | > 100 µM (inactive) | > 100 µM (inactive) | > 100 µM (inactive) | > 100 µM (inactive) | > 100 µM (inactive) |
| NC(=O)NNCc1c(-c2ccccc2)no[n+]1[O-] | > 100 µM (inactive) | > 100 µM (inactive) | > 100 µM (inactive) | > 100 µM (inactive) | > 100 µM (inactive) | > 100 µM (inactive) | > 100 µM (inactive) | > 100 µM (inactive) | > 100 µM (inactive) | > 100 µM | > 100 µM (inactive) | > 100 µM (inactive) | > 100 µM (inactive) | > 100 µM (inactive) | > 100 µM (inactive) | > 100 µM (inactive) | > 100 µM (inactive) | > 100 µM (inactive) | > 100 µM (inactive) | > 100 µM (inactive) |
| N#C/C(C(=S)NCc1ccccc1)=C(/N)N1CCCC1 | > 100 µM (inactive) | > 100 µM (inactive) | > 100 µM (inactive) | > 100 µM (inactive) | > 100 µM (inactive) | > 100 µM (inactive) | > 100 µM (inactive) | > 100 µM (inactive) | > 100 µM (inactive) | > 100 µM | > 100 µM (inactive) | > 100 µM (inactive) | > 100 µM (inactive) | > 100 µM (inactive) | 35.3 µM (inactive) | > 100 µM (inactive) | > 100 µM (inactive) | > 100 µM (inactive) | > 100 µM (inactive) | > 100 µM (inactive) |
| CCCC(=O)Nc1cc(/C=C/C(=O)N2C[C@H]3C[C@@]34C2=CC(=O)c2[nH]cc(C)c24)n(C)c1 | < 0.0025 µM (active) | < 0.0025 µM (active) | 0.00401 µM (active) | 0.00273 µM (active) | < 0.0025 µM (active) | < 0.0025 µM (active) | < 0.0025 µM (active) | < 0.0025 µM (active) | < 0.0025 µM (active) | 0.0103 µM | < 0.0025 µM (active) | < 0.0025 µM (active) | < 0.0025 µM (active) | 0.00395 µM (active) | < 0.0025 µM (active) | 0.00982 µM (active) | < 0.0025 µM (active) | < 0.0025 µM (active) | < 0.0025 µM (active) | < 0.0025 µM (active) |
| COC(=O)/C=C(/C=C1/C(C#N)=C(N)N(c2ccc(Cl)cc2)C1(C)/C(=C\C(=O)OC)C(=O)OC)C(=O)OC (stereo not given) | 19.5 µM (inactive) | 22.8 µM (inactive) | 33.7 µM (inactive) | 42.8 µM (inactive) | 16.3 µM (inactive) | 28.5 µM (inactive) | 20 µM (inactive) | 13.7 µM (inactive) | 43.9 µM (inactive) | 18.5 µM | 17 µM (inactive) | 17.3 µM (inactive) | 23.3 µM (inactive) | 28.2 µM (inactive) | 44.8 µM (inactive) | 16.8 µM (inactive) | 19.5 µM (inactive) | 18.9 µM (inactive) | 32.1 µM (inactive) | 24.1 µM (inactive) |
